According to PubChem BioAssay AID330 (DTP/NCI, 2004):
“And” between values parts separate entries of the source, which are not always exact repeats. Identical values can stand only once. Inconclusive results and toxic doses are left out. Rule for the calls: active = survival T/C of 150% or more; inactive = T/C below 125% in these data.

Test system: P388 leukemia ip, CD2F1 mice, survival T/C
Assay: NCI In Vivo Anticancer Drug Screen. Data for tumor model P388 Leukemia (intraperitoneal) in CD2F1 (CDF1) mice
Conditions: endpoint: median survival time, higher = longer survival
Summary of the method: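 Mice carrying the transplanted tumor received test compound or vehicle. Survival was recorded in each group, and the value is the treated-group measurement divided by that of the vehicle-treated control group.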

[1] = dose: 12.5 mg/kg/injection, schedule: Q04DX003 (ip), vehicle: saline with Tween-80
[2] = dose: 25.0 mg/kg/injection, schedule: Q04DX003 (ip), vehicle: saline with Tween-80
[3] = dose: 50.0 mg/kg/injection, schedule: Q04DX003 (ip), vehicle: saline with Tween-80
[4] = dose: 100.0 mg/kg/injection, schedule: Q04DX002 (ip), vehicle: saline with Tween-80
[5] = dose: 200.0 mg/kg/injection, schedule: Q04DX002 (ip), vehicle: saline with Tween-80
[6] = dose: 50.0 mg/kg/injection, schedule: Q04DX002 (ip), vehicle: saline with Tween-80
[7] = dose: 60.0 mg/kg/injection, schedule: Q01DX005 (ip), vehicle: Klucel (hydroxypropylcellulose) (HPC)
[8] = dose: 120.0 mg/kg/injection, schedule: Q01DX005 (ip), vehicle: Klucel (hydroxypropylcellulose) (HPC)
[9] = dose: 240.0 mg/kg/injection, schedule: Q01DX005 (ip), vehicle: Klucel (hydroxypropylcellulose) (HPC)
[10] = dose: 100.0 mg/kg/injection, schedule: Q01DX005 (ip), vehicle: saline with Tween-80
[11] = dose: 200.0 mg/kg/injection, schedule: Q01DX005 (ip), vehicle: saline with Tween-80
[12] = dose: 50.0 mg/kg/injection, schedule: Q01DX005 (ip), vehicle: Klucel (hydroxypropylcellulose) (HPC)
[13] = dose: 100.0 mg/kg/injection, schedule: Q01DX005 (ip), vehicle: Klucel (hydroxypropylcellulose) (HPC)
[14] = dose: 200.0 mg/kg/injection, schedule: Q01DX005 (ip), vehicle: Klucel (hydroxypropylcellulose) (HPC)
[15] = dose: 60.0 mg/kg/injection, schedule: Q01DX005 (ip), vehicle: saline with Tween-80
[16] = dose: 120.0 mg/kg/injection, schedule: Q01DX005 (ip), vehicle: saline with Tween-80
[17] = dose: 240.0 mg/kg/injection, schedule: Q01DX005 (ip), vehicle: saline with Tween-80
[18] = dose: 50.0 mg/kg/injection, schedule: Q01DX005 (ip), vehicle: saline with Tween-80
[19] = dose: 50.0 mg/kg/injection, schedule: Q01DX009 (ip), vehicle: Klucel (hydroxypropylcellulose) (HPC)
[20] = dose: 100.0 mg/kg/injection, schedule: Q01DX009 (ip), vehicle: Klucel (hydroxypropylcellulose) (HPC)
[21] = dose: 200.0 mg/kg/injection, schedule: Q01DX009 (ip), vehicle: Klucel (hydroxypropylcellulose) (HPC)

Measured: T/C

CCc1nn2c(=O)nc(SC)nc2s1
inactive: [1] 102 % of control | [2] 100 % of control | [3] 102 % of control

O=S1(=O)C=C(c2ccccc2)C(c2ccccc2)=C1
inactive: [1] 100 % of control | [2] 100 % of control | [3] 109 % of control

CCOC(=O)CC(C)=Nc1c(SC)sc(C#N)c1N
inactive: [4] 97 % of control | [5] 95 % of control | dose: 400.0 mg/kg/injection, schedule: Q04DX002 (ip), vehicle: saline with Tween-80 91 % of control

O=c1[nH]c2n[nH]c(=S)n2c2c1CCCC2
inactive: [6] 99 % of control | [4] 97 % of control | [5] 99 % of control

C[S+](C)CCCNC(=O)c1csc(-c2csc(-c3ccccc3)n2)n1
inactive: dose: 6.25 mg/kg/injection, schedule: Q01DX005 (ip), vehicle: water 100 % of control | dose: 12.5 mg/kg/injection, schedule: Q01DX005 (ip), vehicle: water 107 % of control | dose: 25.0 mg/kg/injection, schedule: Q01DX005 (ip), vehicle: water 106 % of control

COc1ccc(C2OC(N)=C(O)C2=O)cc1OC (configuration not stated)
inactive: [7] 100 % of control | [8] 91 % of control | [9] 95 % of control

CC(=O)Oc1cccn(C)c1=O
inactive: dose: 37.5 mg/kg/injection, schedule: Q01DX009 (ip), vehicle: saline 108 % of control | dose: 75.0 mg/kg/injection, schedule: Q01DX009 (ip), vehicle: saline 103 % of control | dose: 150.0 mg/kg/injection, schedule: Q01DX009 (ip), vehicle: saline 113 % of control | dose: 300.0 mg/kg/injection, schedule: Q01DX009 (ip), vehicle: saline 119 % of control | dose: 500.0 mg/kg/injection, schedule: Q01DX009 (ip), vehicle: saline 117 % of control

CN1C=C(c2ccccc2)C=C(c2ccccc2)C1S(=O)(=O)O (configuration not stated)
inactive: dose: 12.5 mg/kg/injection, schedule: Q01DX005 (ip), vehicle: saline + Tween-80 + alcohol 99 % of control | dose: 25.0 mg/kg/injection, schedule: Q01DX005 (ip), vehicle: saline + Tween-80 + alcohol 96 % of control

N#CC1SC(C#N)C(c2ccc(Cl)cc2)OC1c1ccc(Cl)cc1 (configuration not stated)
inactive: dose: 6.25 mg/kg/injection, schedule: Q01DX005 (ip), vehicle: saline with Tween-80 93 % of control | dose: 12.5 mg/kg/injection, schedule: Q01DX005 (ip), vehicle: saline with Tween-80 91 % of control | dose: 25.0 mg/kg/injection, schedule: Q01DX005 (ip), vehicle: saline with Tween-80 90 % of control | [10] 91 % of control | [11] 104 % of control

Cn1c(C(=O)N/N=C/C23OC(C)(C)OC2OCC2OC(C)(C)OC23)cc2cc(OCc3ccccc3)ccc21 (configuration not stated)
inactive: [12] 92 % of control | [13] 101 % of control | [14] 90 % of control

[Se]=P(c1ccccc1)(N1CCOCC1)N1CCOCC1
inactive: dose: 13.75 mg/kg/injection, schedule: Q01DX001 (ip), vehicle: Klucel (hydroxypropylcellulose) (HPC) 96 % of control | dose: 27.5 mg/kg/injection, schedule: Q01DX001 (ip), vehicle: Klucel (hydroxypropylcellulose) (HPC) 112 % of control

CCN(CC)C1(C(F)C(F)(F)F)OCC2(CO1)COC(C(F)C(F)(F)F)(N(CC)CC)OC2 (configuration not stated)
inactive: [15] 98 % of control | [16] 104 % of control | [17] 91 % of control

CNC(=S)N(C1CCCCC1)C1CCCCC1
inactive: dose: 50.0 mg/kg/injection, schedule: Q01DX009 (ip), vehicle: saline with Tween-80 103 % of control | dose: 100.0 mg/kg/injection, schedule: Q01DX009 (ip), vehicle: saline with Tween-80 105 % of control | dose: 200.0 mg/kg/injection, schedule: Q01DX009 (ip), vehicle: saline with Tween-80 100 % of control

OC1CCC(O)C1 (configuration not stated)
inactive: dose: 50.0 mg/kg/injection, schedule: Q01DX005 (ip), vehicle: saline 100 % of control | dose: 100.0 mg/kg/injection, schedule: Q01DX005 (ip), vehicle: saline 105 % of control | dose: 200.0 mg/kg/injection, schedule: Q01DX005 (ip), vehicle: saline 98 % of control

O=C(O)CCN1C(=O)c2ccccc2C1=O
inactive: dose: 100.0 mg/kg/injection, schedule: Q04DX003 (ip), vehicle: saline with Tween-80 100 % of control | dose: 200.0 mg/kg/injection, schedule: Q04DX003 (ip), vehicle: saline with Tween-80 100 % of control | dose: 400.0 mg/kg/injection, schedule: Q04DX003 (ip), vehicle: saline with Tween-80 95 % of control

C/C(N=NC(=S)N1CCCCCC1)=C1\C=CC=CN1O
inactive: [18] 106 % of control | [10] 108 % of control | [11] 110 % of control

C/C=C(\C)C(=O)OCC1(C)C(OC(=O)/C(C)=C/C)CCC2(C)C3C(=O)C=C(C)C2C31 (configuration not stated)
inactive: dose: 25.0 mg/kg/injection, schedule: Q04DX002 (ip), vehicle: saline with Tween-80 110 % of control | [6] 94 % of control | [4] 97 % of control

CCO/C=C1/N=C(c2cc(OC)cc(OC)c2)OC1=O
inactive: dose: 15.0 mg/kg/injection, schedule: Q01DX005 (ip), vehicle: saline with Tween-80 104 % of control | dose: 30.0 mg/kg/injection, schedule: Q01DX005 (ip), vehicle: saline with Tween-80 101 % of control | [15] 90 % of control and 96 % of control | [17] 87 % of control

COc1cc(C)ccc1C1=NC(C)(c2ccc(C)cc2OC)NC1=S (configuration not stated)
inactive: dose: 37.5 mg/kg/injection, schedule: Q01DX009 (ip), vehicle: Klucel (hydroxypropylcellulose) (HPC) 124 % of control | dose: 75.0 mg/kg/injection, schedule: Q01DX009 (ip), vehicle: Klucel (hydroxypropylcellulose) (HPC) 120 % of control

Cc1ccc(C(N)=Nc2ccccc2)cc1
inactive: [15] 100 % of control

O=C(NC(=O)c1ccccc1F)Nc1ccc(C(F)(F)F)cc1
inactive: [19] 102 % of control | [20] 101 % of control | [21] 99 % of control

OC1(Cc2ccc(F)cc2)CCCCCC1
inactive: [12] 102 % of control | [13] 105 % of control | [14] 103 % of control

O=C1CC(c2ccccc2)C(c2ccccc2)C(=O)O1 (configuration not stated)
inactive: dose: 100.0 mg/kg/injection, schedule: Q04DX003 (ip), vehicle: Klucel (hydroxypropylcellulose) (HPC) 87 % of control | dose: 200.0 mg/kg/injection, schedule: Q04DX003 (ip), vehicle: Klucel (hydroxypropylcellulose) (HPC) 93 % of control | dose: 400.0 mg/kg/injection, schedule: Q04DX003 (ip), vehicle: Klucel (hydroxypropylcellulose) (HPC) 91 % of control

CC(C(=O)c1ccc(O)cc1)C1(O)C(=O)Nc2ccccc21 (configuration not stated)
inactive: [18] 98 % of control | [10] 100 % of control | [11] 101 % of control

[C-]#[N+]N=P(c1ccccc1)(c1ccccc1)c1ccccc1
inactive: [7] 107 % of control | [8] 114 % of control | [9] 122 % of control

COc1ccc(-c2cc(=O)cc(C(N)=O)o2)cc1
inactive: [15] 101 % of control | [16] 97 % of control | [17] 96 % of control

O=C(Nc1cc(Cl)c([N+](=O)[O-])cc1O)c1ccco1
inactive: [19] 106 % of control | [20] 99 % of control | [21] 98 % of control

CN(C)c1ccc(NC(=S)Nc2ccccc2C(F)(F)F)cc1
inactive: [19] 100 % of control | [20] 100 % of control | [21] 96 % of control

c1cc(Nc2ccc3c(c2)OCO3)c2cc(C3CCCCC3)ccc2n1
inactive: [15] 97 % of control | [16] 98 % of control | [17] 100 % of control

COc1ccc(C2=NCCc3cc(OC)c(OC)cc32)cc1OC
inactive: dose: 6.25 mg/kg/injection, schedule: Q01DX009 (ip), vehicle: water 111 % of control | dose: 12.5 mg/kg/injection, schedule: Q01DX009 (ip), vehicle: water 108 % of control | dose: 25.0 mg/kg/injection, schedule: Q01DX009 (ip), vehicle: water 118 % of control | dose: 50.0 mg/kg/injection, schedule: Q01DX009 (ip), vehicle: water 105 % of control | dose: 100.0 mg/kg/injection, schedule: Q01DX009 (ip), vehicle: water 111 % of control
